This is an account of results in patent US20080032940A1, “METHODS FOR REDUCING ANTHRACYCLINE-INDUCED TOXICITY” (priority 2006, published 2008).

Data set [1] has as its system caspase-3. As to the kind of experiment: Caspase-3 activity in heart tissues of DOX-treated rats. Format: in vivo, rat. The conditions noted are these: DOX treatment. Here is the method:
Caspase-3 Activity: Caspase-3 activity was measured with acetyl Asp-Glu-Val-Asp 7-amido-4-methlylcoumarin (Ac-DEVD-AFC), as described in a kit from Sigma Aldrich (St. Louis, Mo.). Caspase-3 hydrolyzes Ac-DEVD-AFC to release a fluorescent moiety, 7-amino-4-methylcoumarin (AMC). Briefly, treated cells were suspended in 100 μl of lysis buffer and passed through a 24-gauge needle 10 times to ensure complete lysis. The resulting lysate was centrifuged at 4° C. at 10,000 rmp. 50 μl of clear supernatant was used for the activity assay. […] The excitation and emission wavelengths of AMC are 360 nm and 460 nm respectively.
(§1) In a first set of experiments, male Sprague Dawley rats were divided into the following four treatment groups: (1) PBS control; (2) MitoQ (5 mg/kg, i.p., twice per week); (3) DOX (2.5 mg/kg, i.v.); and (4) DOX plus MitoQ (2.5 mg/kg DOX and 5 mg/kg MitoQ, both i.p.). All agents were administered in PBS for ten weeks. At weeks four, eight, ten and twelve, cardiac function tests were performed. Following the treatments, the rats were sacrificed and hearts were removed for histochemical and biochemical analysis. See FIG. 8 for treatment protocol
Caspase-3 was determined as described above in Example 3.

Data set [2] relates to male Sprague Dawley rats. As to the kind of experiment: Echocardiography in DOX-treated rats (cardiac function test). It is filed as in vivo, rat. On the procedure: as §1
In a second set of experiments, a different mitochondria-target antioxidant was assessed, Mito-TEMPOL. Male Sprague Dawley rats were divided into the following four treatment groups: (1) PBS control; (2) Mito-TEMPOL (5 mg/kg, i.p., twice per week); (3) DOX (2.5 mg/kg, i.v.); and (4) DOX plus Mito-TEMPOL (2.5 mg/kg and 5 mg/kg Mito-TEMPOL, both i.p.). All agents were administered in PBS for ten weeks. At weeks four, eight, ten and twelve, cardiac function tests were performed. Following treatment, the rats were sacrificed and hearts were removed for histochemical and biochemical analysis.
Cardiac Function Test: Echocardiography was performed at baseline, four, eight, ten and twelve weeks following the start of treatment. Rats were anesthetized with a mixture of ketamine (75 mg/kg) and medotomidine (0.25 mg/kg). Once anesthetized, the chest was shaved and cardiac rhythm monitored using three limb leads attached to a Vivid 7 from General Electric (Waukesha, Wis.) and a M12L linear array probe.
2-D B mode imaging parameters were as follows: (1) depth, 2.5 cm.; (2) frame rate, 230 frames/second; and (3) second harmonic imaging. For the primary endpoint data, the standard short axis view at the mid-ventricular level were used. Because of the serial nature of comparative measurements, co-registration at this level was ensured by the use of papillary muscles as localizers and obtaining a circular left ventricular slice. Other standard views obtained induced short axis apical slices and short axis basal slices at the mitral valve. […] In addition, Q analysis software (General Electric) of the B mode echo images was used to measure regional radial and circumferential strain. Furthermore, diastolic function was monitored by using pulsed Doppler of the mitral inflow and aortic outflow regions in a standard apical four chamber/five chamber view, as was mitral E wave, A wave, isovolumic relaxation time and mitral E deceleration time.

Data set [3] has as its system tumor cell lines (LnCAP, MCF-7, SH-SY5Y and MDA-MB-231). The experiment in a line: MTT assay, toxicity in tumor cell lines. It is filed as cell-based, human. Particulars: 10 μM, MCF-7 and SH-SY5Y. The source says:
In contrast, four tumor cell lines were used herein. The first tumor cell line was a human neuroblastoma cell line, SH-SY5Y, from American Type Culture Collection (ATCC; Rockville, Md.). The second tumor cell line was a human prostate cancer cell line, LnCAP, from ATCC. The third tumor cell line was a human breast cancer cell line, MCF-7, from ATCC. The fourth tumor cell line was a human metastatic breast cancer cell line, MDA-MB-231 from ATCC.
(§2) In a first set of experiments, a dose-response curve to MitoQ was measured in each of the six cell lines described above. Briefly, cells were treated with various concentrations of MitoQ for twenty-four hours. Following treatment, cellular toxicity was measured by a MTT assay as described below.
In a third set of experiments, each of the six cell lines described above were subjected to the following treatments: (1) 10 μM MitoQ; (2) 10 μM CoQ (MitoQ without the phosphonium, which served as a control); and (3) 10 μM triphenylphosphonium (TPP; MitoQ without the ubiquinone or the ubquinol moiety, which also served as a control). Following treatment, cellular toxicity was measured by the MTT assay. […]
(In general: Formazan colour is commonly taken as a measure of viable cells.)

For data set [4], the system named is H9c2 cells. The experiment in a line: MTT assay, toxicity in normal cells H9c2. It is filed as cell-based, rat. The conditions noted are these: 10 μM. Here is the method:
(§3) Cell lines: Two normal cell lines were used herein. The first normal cell line was a rat-derived embryonic cardiomyocyte cell line, H9c2, from […] (Manassas, Va.; Catalog No. CRL-1446). The second normal cell line was BAECs from Clonetics Corp. (San Diego, Calif.).
as §2
(§4) In a third set of experiments, each of the six cell lines described above were subjected to the following treatments: (1) 10 μM MitoQ; (2) 10 μM CoQ (MitoQ without the phosphonium, which served as a control); and (3) 10 μM triphenylphosphonium (TPP; MitoQ without the ubiquinone or the ubquinol moiety, which also served as a control). Following treatment, cellular toxicity was measured by the MTT assay.
(§5) MTT Assay: An MIT assay was performed to examine MitoQ's toxicity on normal cells and tumor cells (see Mosmann T, “Rapid colorimetric assay for cellular growth and survival: Application to proliferation and cytotoxicity assays,” J. Immunol. Meth. 65:55-63 (1983)). […] Formazon crystals formed cells were solubilized by adding 200 μl of 0.1N HCl in isopropanol, and absorbance was measured at 570 nm.

The test system of data set [5] is bovine aortic endothelial cells (BAEC). The experiment in a line: MTT assay, toxicity in normal cells BAEC. Particulars: 10 μM; BAECs. Format: cell-based. Here is the method:
as §3, §2, §4, §5

Data set [6] relates to isolated cardiomyocytes and isolated hearts. Particulars: cited from earlier work.
Data set [7] relates to laboratory animals. Particulars: in vivo; cited from earlier work.

As for `COc1cccc2c1C(=O)c1c(O)c3c(c(O)c1C2=O)C[C@@](O)(C(=O)CO)C[C@@H]3O[C@H]1C[C@H](N)[C@H](O)[C@H](C)O1` [DOX, doxorubicin], in data set [1], the “caspase activity in heart tissues” value is “increased with increasing DOX treatment”. Besides, in data set [2] (DOX 2.5 mg/kg, rats), the “decrease of fractional shortening versus control” value was determined as 18% and the “decrease of radial strain versus control” value is given as 35%.

Regarding “triphenylphosphonium [TPP, reference compound]”, the “toxicity (MTT), FIG. 4” value in data set [3], in data set [4] and in data set [5] was “not toxic” throughout.

For coenzyme Q [CoQ], the “toxicity (MTT), FIG. 4” value in data set [3] was “not toxic”. For the same compound, the “effect on DOX-induced toxicity” value in data set [6] is listed as “reversed DOX-induced toxicity”. Further, the “DOX-induced cardiomyopathy (echocardiograms, FIG. 9A)” value in data set [2] (after 12 weeks of DOX treatment) is reported as “not”. Further, in data set [2] (co-administered with DOX, echocardiography), the “protection of left ventricular function and fractional shortening against DOX cardiotoxicity” value is listed as “did not significantly protect”. The “efficacy against DOX cardiotoxicity in animals” value (shortened to “efficacy”) in data set [7] is given as “not as effective”.

For the compound `Cc1c(C)c2c(c(C)c1O)CC[C@@](C)(CCC[C@H](C)CCC[C@H](C)CCCC(C)C)O2` [α-tocopherol], the “efficacy” value in data set [7] is “limited efficacy”.

With `CC(=O)N[C@@H](CS)C(=O)O` [N-acetylcysteine], the “efficacy” value in data set [7] is given as “limited efficacy”.
